Data on seven compounds can be found in ChEMBL document CHEMBL1127249, “Design, structure activity and x-ray crystallographic studies of pseudosymmetrical nonpeptidyl HIV-1 protease inhibitors” (Bioorg Med Chem Lett, 1994).

Assay [1] addresses Human immunodeficiency virus type 1 protease (Human immunodeficiency virus 1, UniProt Q72874). In words: Compound was tested for inhibitory activity against recombinant HIV-1 protease using 125 I-SPA (scintillation proximity assay).
In assay [2] the test system is Human immunodeficiency virus 1. Briefly: Antiviral activity against HIV-1. It is filed as functional, organism-based.

As a reminder, the IC50 is the concentration needed to halve the response being measured. Regarding `O=C(N[C@H]1CCCC[C@@H]1NC(=O)[C@H](Cc1ccccc1)CC(O)C[C@@H](Cc1ccccc1)C(=O)N[C@H]1CCCC[C@@H]1NC(=O)c1cccnc1)c1cccnc1`, in assay [1], the IC50 was found to be 600 nM.

`CC(C)(C)OC(=O)N[C@H]1CCCC[C@@H]1NC(=O)[C@H](Cc1ccccc1)CC(O)C[C@@H](Cc1ccccc1)C(=O)N[C@H]1CCCC[C@@H]1NC(=O)OC(C)(C)C`: the IC50 in assay [1] is above 10000 nM.

Take `O=C(N[C@H]1CCCC[C@@H]1NC(=O)[C@H](Cc1ccccc1)CC(O)C[C@@H](Cc1ccccc1)C(=O)N[C@H]1CCCC[C@@H]1NC(=O)c1ccccn1)c1ccccn1`: the results for the IC50 in assay [2] and in assay [1] were above 20 µM and 400 nM, respectively.

In the case of `O=C(N[C@H]1CCCC[C@@H]1NC(=O)[C@H](Cc1ccccc1)CC(O)C[C@@H](Cc1ccccc1)C(=O)N[C@H]1CCCC[C@@H]1NC(=O)c1ccncc1)c1ccncc1`, the half-inhibitory concentration (IC50) is above 20 µM in assay [2] and 350 nM in assay [1].

For the compound `O=C(N[C@H]1CCCC[C@@H]1NC(=O)[C@H](Cc1ccccc1)CC(O)C[C@@H](Cc1ccccc1)C(=O)N[C@H]1CCCC[C@@H]1NC(=O)c1cc2ccccc2cn1)c1cc2ccccc2cn1`, the IC50 in assay [1] was 45 nM.

Regarding `CC(=O)N[C@H]1CCCC[C@@H]1NC(=O)[C@H](Cc1ccccc1)CC(O)C[C@@H](Cc1ccccc1)C(=O)N[C@H]1CCCC[C@@H]1NC(C)=O`, the IC50 in assay [1] amounted to 3000 nM.

For `O=C(N[C@H]1CCCC[C@@H]1NC(=O)[C@H](Cc1ccccc1)CC(O)C[C@@H](Cc1ccccc1)C(=O)N[C@H]1CCCC[C@@H]1NC(=O)c1ccc2ccccc2n1)c1ccc2ccccc2n1`, the IC50 in assay [2] amounted to 2 µM; in assay [1] it was 40 nM.
